{
  "source": "patent US7259170B2",
  "about": "“Macrolides containing pharmaceutical compositions” (Novartis AG, priority 2001, dated 2007)",
  "system": "Experimental autoimmune uveitits (EAU)",
  "assay": "Experimental autoimmune uveitits (EAU) test in rats",
  "format": "in vivo, LEWIS rats",
  "conditions": "for EAU 1st: Day of first signs of EAU (mean±SD) / EAU 10: Incidence of EAU on day 10 (affected animals/animals per group) / EAU POS: Number of EAU positive rats (affected animals/animals per group until end of the study) / SCORE MAX DAY: day of maximum score / SCORE MAX SCORE: Maximum score (mean of both eye lesions±SD): oral once daily; for course and intensity of the disease compared with placebo controls: oral, 0.1 mg/kg compound of formula IIa or 15 mg/kg/day compound of formula I alone, combination at the same dosage levels",
  "key": {"[1]": {"conditions": "Example 1, 5 rats per group, 14 days, Dosis mg/kg/day: Cpd IIa 0.1, Cpd I 15, combination 1.5 [sic] + 15"}, "[2]": {"conditions": "Example 1, 14 days, Dosis mg/kg/day: Cpd IIa 0.1, Cpd I 15, combination 1.5 [sic] + 15"}, "[3]": {"conditions": "Example 1, scores 0 to 4 for 1 eye, 14 days, Dosis mg/kg/day: Cpd IIa 0.1, Cpd I 15, combination 1.5 [sic] + 15"}, "[4]": {"conditions": "Example 2, 6 rats per group, 14 days (14×), mg/kg/day: Cpd IIa 0.1, Cpd I 15, combination 15 + 0.1"}},
  "note": "Counter-ions that a name gives are not always drawn. Marks after values point to notes of the source that are not given here.",
  "data": [
    {"smiles": "CC[C@@H]1/C=C(\\C)C[C@H](C)C[C@H](OC)[C@H]2O[C@@](O)(C(=O)C(=O)N3CCCC[C@H]3C(=O)O[C@H](/C(C)=C/[C@@H]3CC[C@H](Cl)[C@H](OC)C3)[C@H](C)[C@@H](O)CC1=O)[C@H](C)C[C@@H]2OC", "note": "[Cpd I, 33-epi-33-chloro-FR 520]", "values": [
      {"measurement": "EAU 1st: Day of first signs of EAU (mean±SD)", "setting": "[1]", "result": "11.8 (1.3) day"},
      {"measurement": "EAU 10: Incidence of EAU on day 10 (affected animals/animals per group)", "setting": "[1]", "result": "1/5"},
      {"measurement": "EAU POS: Number of EAU positive rats (affected animals/animals per group until end of the study)", "setting": "[1]", "result": "5/5"},
      {"measurement": "SCORE MAX DAY: day of maximum score", "setting": "[2]", "result": 14, "unit": "days"},
      {"measurement": "course and intensity of the disease compared with placebo controls", "setting": "Example 1", "result": "not distinctively different from placebo controls"},
      {"measurement": "SCORE MAX SCORE: Maximum score (mean of both eye lesions±SD)", "setting": "[3]", "result": "6.8 (1.3)"},
      {"measurement": "EAU 1st: Day of first signs of EAU (mean±SD)", "setting": "[4]", "result": "11.5 (0.8) day"},
      {"measurement": "EAU 10: Incidence of EAU on day 10 (affected animals/animals per group)", "setting": "[4]", "result": "2/6"},
      {"measurement": "EAU POS: Number of EAU positive rats (affected animals/animals per group until end of the study)", "setting": "[4]", "result": "6/6"},
      {"measurement": "SCORE MAX DAY: day of maximum score", "setting": "[4]", "result": 14, "unit": "days"},
      {"measurement": "SCORE MAX SCORE: Maximum score (mean of both eye lesions±SD)", "setting": "[4]", "result": "6.0 (2.5)"}
    ]},
    {"smiles": "CCCCCCCCc1ccc(CCC(N)(CO)CO)cc1", "note": "[Cpd IIa, 2-amino-2[2-(4-octylphenyl)ethyl]propane-1,3-diol hydrochloride]", "values": [
      {"measurement": "EAU 1st: Day of first signs of EAU (mean±SD)", "setting": "[1]", "result": "10.5 (0.6) day"},
      {"measurement": "EAU 10: Incidence of EAU on day 10 (affected animals/animals per group)", "setting": "[1]", "result": "2/5"},
      {"measurement": "EAU POS: Number of EAU positive rats (affected animals/animals per group until end of the study)", "setting": "[1]", "result": "4/4*^)"},
      {"measurement": "SCORE MAX DAY: day of maximum score", "setting": "[2]", "result": 13, "unit": "days"},
      {"measurement": "course and intensity of the disease compared with placebo controls", "setting": "Example 1", "result": "not distinctively different from placebo controls"},
      {"measurement": "SCORE MAX SCORE: Maximum score (mean of both eye lesions±SD)", "setting": "[3]", "result": "8.0 (0.0)"},
      {"measurement": "EAU 1st: Day of first signs of EAU (mean±SD)", "setting": "[4]", "result": "11.2 (1.0) day"},
      {"measurement": "EAU 10: Incidence of EAU on day 10 (affected animals/animals per group)", "setting": "[4]", "result": "0/6"},
      {"measurement": "EAU POS: Number of EAU positive rats (affected animals/animals per group until end of the study)", "setting": "[4]", "result": "6/6"},
      {"measurement": "SCORE MAX DAY: day of maximum score", "setting": "[4]", "result": 14, "unit": "days"},
      {"measurement": "SCORE MAX SCORE: Maximum score (mean of both eye lesions±SD)", "setting": "[4]", "result": "8.0 (0.0)"}
    ]}
  ]
}
